The values that follow come from PubChem BioAssay (NCI).

Test systems include KM12 colon; RPMI-8226 leukemia; HCT-15 colon; OVCAR-4 ovarian; HCC-2998 colon; IGROV1 ovarian; K-562 leukemia; M14 melanoma; OVCAR-3 ovarian; NCI-H23 lung.
Holding throughout (test): NCI anticancer screen, dose series, 48 h

SMILES strings stand for the structures.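 All cell lines were grown in 96-well plates and treated with compound for 48 hours. GI50 marks 50% less growth. The concentration for full growth arrest is given as TGI.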

Take `Cc1nc([N+](=O)[O-])cn1-c1nc2ccccn2c1[N+](=O)[O-]`: the TGI in the assay with KM12 colon, with RPMI-8226 leukemia, with HCT-15 colon, in the assay on OVCAR-4 ovarian, with HCC-2998 colon and in the assay with IGROV1 ovarian was greater than 100 µM throughout. Also, the TGI in the assay with K-562 leukemia, in the assay with M14 melanoma, in the assay on OVCAR-3 ovarian and in the assay on NCI-H23 lung was greater than 100 µM throughout.

Consider `CCOC(=O)C1=CCCC[C@H]1S(=O)(=O)Nc1ccc(F)cc1Cl`, for which the GI50 was 27.1 µM with KM12 colon; 20.5 µM in the assay with RPMI-8226 leukemia; 20.3 µM with HCT-15 colon; 31.2 µM in the assay on OVCAR-4 ovarian; 31.2 µM in the assay with HCC-2998 colon; 31 µM in the assay with IGROV1 ovarian. In addition, the GI50 in the assay with K-562 leukemia is 26.4 µM; with M14 melanoma, 25.5 µM; in the assay with OVCAR-3 ovarian, 23.2 µM; in the assay with NCI-H23 lung, 26.6 µM. In addition, the TGI is greater than 100 µM with KM12 colon; 67.6 µM in the assay on RPMI-8226 leukemia; greater than 100 µM in the assay with HCT-15 colon; greater than 100 µM with OVCAR-4 ovarian; greater than 100 µM with HCC-2998 colon; greater than 100 µM with IGROV1 ovarian. Also, the TGI is greater than 100 µM in the assay on K-562 leukemia, 96.7 µM in the assay on M14 melanoma, 77.3 µM with OVCAR-3 ovarian and greater than 100 µM in the assay on NCI-H23 lung.

For the compound `CCC[C@H]1O[C@@H]2CC(=O)O[C@@H]2C2=C1C(=O)C=CC2=O`, the TGI was 48.3 µM with KM12 colon; 74.6 µM in the assay on RPMI-8226 leukemia; 32.4 µM with HCT-15 colon; 29.9 µM in the assay on OVCAR-4 ovarian; greater than 57 µM in the assay on HCC-2998 colon; 32.1 µM in the assay with IGROV1 ovarian. For the same compound, the TGI was greater than 46.5 µM with K-562 leukemia, 32.8 µM in the assay with M14 melanoma, 28.5 µM in the assay with OVCAR-3 ovarian and 18.5 µM in the assay with NCI-H23 lung.

With `O=C(C(=O)c1cc2ccccc2[nH]1)c1cc2ccccc2[nH]1`, the TGI is greater than 347 µM in the assay with KM12 colon; greater than 110 µM in the assay on RPMI-8226 leukemia; greater than 347 µM with HCT-15 colon; 299 µM with OVCAR-4 ovarian; greater than 347 µM with HCC-2998 colon; greater than 347 µM with IGROV1 ovarian. The TGI was greater than 347 µM with K-562 leukemia, greater than 347 µM in the assay with M14 melanoma, 95.7 µM in the assay on OVCAR-3 ovarian and greater than 347 µM in the assay with NCI-H23 lung.

As for `CCc1nc(N)nc(N)c1-c1ccc(Cl)c([N+](=O)[O-])c1`, the TGI with KM12 colon was greater than 100 µM; in the assay on RPMI-8226 leukemia, greater than 83.9 µM; with HCT-15 colon, greater than 100 µM; in the assay with OVCAR-4 ovarian, greater than 100 µM; in the assay on HCC-2998 colon it was greater than 100 µM; in the assay on IGROV1 ovarian, greater than 100 µM. Moreover, the TGI in the assay with K-562 leukemia is greater than 100 µM; with M14 melanoma, 98.8 µM; in the assay on OVCAR-3 ovarian, greater than 100 µM; with NCI-H23 lung it was greater than 100 µM.

In the case of `Cc1c(-c2cnccn2)ssc1=S`, the TGI in the assay on KM12 colon, in the assay on RPMI-8226 leukemia, with HCT-15 colon, in the assay on OVCAR-4 ovarian, in the assay with HCC-2998 colon and with IGROV1 ovarian was greater than 100 µM throughout. Further, the TGI in the assay on K-562 leukemia, in the assay on M14 melanoma, in the assay with OVCAR-3 ovarian and in the assay on NCI-H23 lung was greater than 100 µM in each case.

With `CCOC(OC(C)=O)[C@@H]1C=C[C@H](C)N(c2ccc([N+](=O)[O-])cc2)O1` (stereo not given in full), the TGI in the assay with KM12 colon worked out at 7.82 µM; with RPMI-8226 leukemia it was 5.45 µM; with HCT-15 colon it was 6.77 µM; in the assay with OVCAR-4 ovarian, 15.4 µM; in the assay on HCC-2998 colon, 26.3 µM; in the assay with IGROV1 ovarian it was 29 µM. Further, the TGI in the assay on K-562 leukemia is greater than 26.7 µM; with M14 melanoma, 9.44 µM; in the assay with OVCAR-3 ovarian, 15.7 µM; in the assay on NCI-H23 lung it was 16.2 µM.

For `COc1cc2c(cc1OC(C)C)[C@H](c1ccc(Cl)cc1)N(c1ccc(N(C)CC3CCC(N4CCN(C)C(=O)C4)CC3)cc1)C(=O)C2` (stereo not given in full), the GI50 with KM12 colon was 3.13 µM; with RPMI-8226 leukemia, 2.13 µM; in the assay on HCT-15 colon, 1.95 µM; in the assay with OVCAR-4 ovarian, 2.99 µM; in the assay on HCC-2998 colon, 2.59 µM; in the assay on IGROV1 ovarian, 1.16 µM. Moreover, the GI50 in the assay with K-562 leukemia is 3.56 µM; in the assay on M14 melanoma, 2.72 µM; in the assay with OVCAR-3 ovarian, 2.6 µM; in the assay with NCI-H23 lung, 3.34 µM. Moreover, the TGI in the assay on KM12 colon turned out to be 9.11 µM; with RPMI-8226 leukemia it was 4.76 µM; in the assay with HCT-15 colon, 5.79 µM; with OVCAR-4 ovarian it was 9.85 µM; with HCC-2998 colon, 7.07 µM; in the assay with IGROV1 ovarian, 4.13 µM. Also, the TGI in the assay on K-562 leukemia worked out at 16.9 µM; in the assay on M14 melanoma, 7.86 µM; with OVCAR-3 ovarian, 7.07 µM; in the assay on NCI-H23 lung, 13.2 µM.

Take `O=C1Nc2c(ccc(Cl)c2Cl)/C1=C/c1cc(Br)c(O)c(Br)c1`: the GI50 with KM12 colon is 4.75 µM; in the assay on RPMI-8226 leukemia it was 2.61 µM; in the assay with HCT-15 colon, 4.65 µM; in the assay on OVCAR-4 ovarian it was 5.69 µM; with HCC-2998 colon it was 6.59 µM; in the assay with IGROV1 ovarian it was 8.91 µM. The GI50 in the assay with K-562 leukemia was 5.57 µM; in the assay on M14 melanoma it was 3.14 µM; in the assay on OVCAR-3 ovarian, 3.14 µM; in the assay with NCI-H23 lung, 4.91 µM. The TGI is 40.2 µM with KM12 colon; 67.7 µM with RPMI-8226 leukemia; 35.3 µM in the assay on HCT-15 colon; greater than 100 µM in the assay with OVCAR-4 ovarian; 32.5 µM in the assay on HCC-2998 colon; greater than 55.8 µM in the assay on IGROV1 ovarian. Moreover, the TGI with K-562 leukemia is greater than 100 µM; in the assay with M14 melanoma, greater than 100 µM; in the assay with OVCAR-3 ovarian, 12 µM; in the assay on NCI-H23 lung, greater than 65.7 µM.

For the compound `C=C(CCCCC)CN1CCCC1C(C)=O` (stereo not given), the TGI in the assay on KM12 colon was greater than 100 µM; with RPMI-8226 leukemia, 40 µM; in the assay with HCT-15 colon, greater than 100 µM; in the assay on OVCAR-4 ovarian, 99.3 µM; with HCC-2998 colon it was greater than 100 µM; in the assay with IGROV1 ovarian, greater than 100 µM. Moreover, the TGI in the assay on K-562 leukemia was 51.5 µM; in the assay with M14 melanoma it was greater than 100 µM; in the assay on OVCAR-3 ovarian it was greater than 100 µM; in the assay with NCI-H23 lung it was 65.1 µM.

As to `C=CCNC(=O)NCCCCC(NC(C)=O)C(=O)NCc1ccccc1` (stereo not given), the TGI with KM12 colon, with RPMI-8226 leukemia, in the assay on HCT-15 colon, with OVCAR-4 ovarian, in the assay on HCC-2998 colon and in the assay on IGROV1 ovarian was greater than 100 µM in each case. Further, the TGI in the assay with K-562 leukemia, with M14 melanoma, in the assay with OVCAR-3 ovarian and in the assay on NCI-H23 lung was greater than 100 µM each time.
